# Measurements reported in US20230295145A1, “PYRROLIDINE DERIVATIVES AND METHODS OF USE” (Genentech, Inc., priority 2020, published 2023).
# Read-outs that look alike come from different tables or passages of the source.
# Assays:
# [1] = system: NCI-H23; assay: Cell Viability Assay (CellTiter-Glo); type: cell-based; details: 5 days
# Method: (§1) Cell lines were cultured in RPMI-1640, 5% fetal bovine serum, and 2 mM glutamine in a humidified incubator maintained at 37° C. with 5% CO2. Cells were assessed with a Vi-CELL Cell Viability Analyzer (Beckman Coulter; Brea, CA); viability of at least 90% was required for screening. A Multidropä Combi Reagent Dispenser (Thermo Scientific; Waltham, MA) was used to plate cells into Falcons^â 384-well, black, clear-bottom plates (Catalog No. 353962; Corning; Tewksbury, MA) using seeding densities previous determined to achieve approximately 80% confluence at the final time point of the assay. The compounds were prepared at 1000× in advance using an Echo 555 liquid handler (Labcyte; Sunnyvale, CA) and stored in −80° C. until the day of compound addition. On the following day, cells were treated with compounds at final assay concentration 1 uM and 10 uM using a Bravo Automated Liquid-Handling Platform (Agilent; Santa Clara, CA). After 5 days, 25 mL CellTiter-Glo^â reagent was added using a MultiFloä Microplate Dispenser (BioTek; Winooski, VT). Cell lysis was induced by mixing for 30 minutes on an orbital shaker; plates were then incubated at room temperature for 10 minutes to stabilize the luminescent signal. Luminescence was read by a 2104 EnVision^â Multilabel Plate Reader (PerkinElmer; Waltham, MA).
# (§2) The data was processed using Genedata Screener^â, Version 15 (Genedata; Basel, Switzerland) to assess compound effects on viability. Compound treated wells were normalized to the median value of 14 DMSO control wells on the same 384 well plate.
# [2] = system: NCI-H2030; assay: Cell Viability Assay (CellTiter-Glo); type: cell-based; details: 5 days
# Method: as §1, §2
# [3] = system: CAL-120; assay: Cell Viability Assay (CellTiter-Glo); details: 5 days
# Method: as §1, §2
# [4] = system: NCI-H1650; assay: Cell Viability Assay (CellTiter-Glo); type: cell-based; details: 10 μM, 5 days
# Method: (§3) Cell lines were cultured in RPMI-1640, 5% fetal bovine serum, and 2 mM glutamine in a humidified incubator maintained at 37° C. with 5% CO2. Cells were assessed with a Vi-CELL Cell Viability Analyzer (Beckman Coulter; Brea, CA); viability of at least 90% was required for screening. A Multidropä Combi Reagent Dispenser (Thermo Scientific; Waltham, MA) was used to plate cells into Falcons^â 384-well, black, clear-bottom plates (Catalog No. 353962; Corning; Tewksbury, MA) using seeding densities previous determined to achieve approximately 80% confluence at the final time point of the assay. The compounds were prepared at 1000× in advance using an Echo 555 liquid handler (Labcyte; Sunnyvale, CA) and stored in −80° C. until the day of compound addition. On the following day, cells were treated with compounds at final assay concentration 1 uM and 10 uM using a Bravo Automated Liquid-Handling Platform (Agilent; Santa Clara, CA). After 5 days, 25 mL CellTiter-Glo^â reagent was added using a MultiFloä Microplate Dispenser (BioTek; Winooski, VT). Cell lysis was induced by mixing for 30 minutes on an orbital shaker; plates were then incubated at room temperature for 10 minutes to stabilize the luminescent signal. Luminescence was read by a 2104 EnVision^â Multilabel Plate Reader (PerkinElmer; Waltham, MA). […]
# [5] = system: MCF-7; assay: Cell Viability Assay (CellTiter-Glo); type: cell-based; details: 10 μM, 5 days
# Method: as §3
# [6] = target: T1, VHL (Homo sapiens, UniProt P40337); assay: VHL HEK-293 BRET Assay (VHL NanoBRET Target Engagement Assay); type: cell-based; details: IC50 values measured in the presence of digitonin; HEK 293 RT VHL-NanoLuc stable cells; read-out: IC50 + Digi (μM)*
# T1 construct: expressed in transfected cells
# [7] = system: SUIT-2; assay: Cell Viability Assay (CellTiter-Glo); type: cell-based; details: 10 μM, 5 days
# Method: as §3
# [8] = system: HCC366; assay: Cell Viability Assay (CellTiter-Glo); type: cell-based; details: 5 days
# Method: as §1, §2
# [9] = system: PANC-1; assay: Cell Viability Assay (CellTiter-Glo); type: cell-based; details: 5 days
# Method: as §1, §2
# [10] = system: KNS-62; assay: Cell Viability Assay (CellTiter-Glo); type: cell-based; details: 5 days
# Method: as §1, §2
# [11] = system: SW 620; assay: Cell Viability Assay (CellTiter-Glo); type: cell-based; details: 10 μM, 5 days
# Method: as §3
# [12] = system: KPL-4; assay: Cell Viability Assay (CellTiter-Glo); type: cell-based; details: 10 μM, 5 days
# Method: as §3
# [13] = system: ABC-1; assay: Cell Viability Assay (CellTiter-Glo); type: cell-based; details: 10 μM, 5 days
# Method: as §1, §2
# [14] = system: HCC1438; assay: Cell Viability Assay (CellTiter-Glo); type: cell-based; details: 10 μM, 5 days
# Method: as §3
# [15] = system: MDA-MB-436; assay: Cell Viability Assay (CellTiter-Glo); type: cell-based; details: 10 μM, 5 days
# Method: as §3
# [16] = target: T1, VHL; assay: VHL HEK-293 BRET Assay (VHL NanoBRET Target Engagement Assay); type: cell-based; details: HEK 293 RT VHL-NanoLuc stable cells
# Method: The VHL NanoBRET™ Target Engagement Assay analyzes the apparent affinity of test compounds for VHL in cells by competitive displacement of a VHL NanoBRET™ tracer reversibly bound to a NanoLuc® VHL fusion protein stably expressed in the cells.
# Test compounds were transferred to the assay plate (384 Well White Non-Binding Corning Assay Plates (Corning-3574)) using an Echo 555 Liquid Handler (Labcyte) in 2.5 nL increments and, as appropriate, intermediate stock concentrations of compounds, in order to prepare a titration series. 50 nL of control compound (10 mM; parental unlabeled VHL antagonist; see structure below) and 50 nL of DMSO (negative control) were dispensed into the appropriate control wells. DMSO was backfilled to a final volume of 50 nL as required. 50 nl per well of 1 mM VHL NanoBRET™ Tracer in DMSO (NanoBRET™ Tracer-PEG2-590 (see structure below)) was transferred into each well using an Echo 555 (ultimately yielding a final concentration of 1 uM). HEK 293 RT VHL-NanoLuc® stable cells were cultured in DMEM High Glucose with Pyruvate, 10% fetal bovine serum, 2 mg/mL of Geneticin Selective Antibiotic (50 mg/mL) and 2 mM HEPES (1 M). Cells were seeded in Opti-MEM (Life Technologies-11058-021), 1.7×10^5 cells/mL, 40 μl per well into the assay plate, centrifuged at 500 rpm for 30 seconds and incubated for 2 hours. Max Signal control wells consisted of DMSO only treated wells. Minimum Signal control wells contained of 10 uM parental unlabeled VHL antagonist (control compound—see structure below). 3× Complete Substrate plus Inhibitor Solution was prepared in Opti-MEM (consists of a 1:166 dilution of NanoBRET™ Nano-Glo® Substrate plus a 1:500 dilution of Extracellular NanoLuc® Inhibitor in Opti-MEM), and 20 ul was dispensed into each well of the 384-well plate and centrifuged at 1000 rpm for 1 minute, then incubated for 2 minutes at room temperature. Background Signal control wells were prepared without tracer for background correction steps.
# Plates were read using a PerkinElmer Envision Reader (model 2104-0020) equipped with Luminescence option (Mirror: BRET2 Enh (PE Barcode 659), Emission Filter: Omega 610LP (Barcode 504), 2nd Emission Filter: Umbelliferone 460 (Barcode 207), Measurement height: 6.5 mm, Measurement time: 1 s). The raw BRET ratio values were calculated by dividing the acceptor emission value (610 nm) by the donor emission value (460 nm) for each sample. To correct for background, the BRET ratio in the absence of tracer (average of no-tracer control samples) was subtracted from the BRET ratio of each sample. Raw BRET units were converted to milliBRET units (mBU) by multiplying each raw BRET value by 1,000. The normalized NanoBRET™ signal was calculated relative to the Max Signal control wells (DMSO treated control wells) and the Minimum Signal control wells. Percentage inhibition was calculated relative to the Minimum Signal control and Maximum Signal control wells. IC50 values were derived by four parameter curve fitting using the Robust method.
# [17] = system: KPL-1; assay: Cell Viability Assay (CellTiter-Glo); type: cell-based; details: 5 days
# Method: as §1, §2
# [18] = system: CAL-120; details: 10 µM
# Method: as §1, §2
# T1 sequence (P40337 whole entry): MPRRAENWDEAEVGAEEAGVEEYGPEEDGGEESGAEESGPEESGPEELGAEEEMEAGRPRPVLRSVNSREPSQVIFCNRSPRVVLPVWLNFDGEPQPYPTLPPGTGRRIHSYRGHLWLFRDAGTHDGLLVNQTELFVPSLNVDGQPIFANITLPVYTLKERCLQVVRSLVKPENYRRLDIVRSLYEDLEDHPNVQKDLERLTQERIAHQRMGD
compound,measurement,setting,value
"Cc1ncsc1-c1ccc(CNC(=O)[C@@H]2C[C@@H](O)CN2C(=O)[C@@H](n2cc(C3CC3)nn2)C(C)(C)C)cc1 [Compound 288, (2S,4R)-1-[(2S)-2-(4-cyclopropyltriazol-1-yl)-3,3-dimethyl-butanoyl]-4-hydroxy-N-[[4-(4-methylthiazol-5-yl)phenyl]methyl]pyrrolidine-2-carboxamide]",Normalized viability % DMSO,[1]; 1 μM,8.6 % DMSO
same,Normalized viability % DMSO,[1]; 10 μM,6.7 % DMSO
same,Normalized viability % DMSO,[2]; 1 μM,19.2 % DMSO
same,Normalized viability % DMSO,[2]; 10 μM,16.5 % DMSO
same,Normalized viability % DMSO,[3]; 1 μM,31.1 % DMSO
same,Normalized viability % DMSO,[3]; 10 μM,31.9 % DMSO
same,Normalized viability % DMSO,[4],27.7 % DMSO
same,Normalized viability % DMSO,[5],25.8 % DMSO
same,IC50,[6],0.0132 µM
same,Normalized viability % DMSO,[7],30.2 % DMSO
same,Normalized viability % DMSO,[8]; 1 μM,43.0 % DMSO
same,Normalized viability % DMSO,[8]; 10 μM,22.5 % DMSO
same,Normalized viability % DMSO,[9]; 1 μM,33.9 % DMSO
same,Normalized viability % DMSO,[9]; 10 μM,31.1 % DMSO
same,Normalized viability % DMSO,[10]; 1 μM,44.3 % DMSO
same,Normalized viability % DMSO,[10]; 10 μM,26.4 % DMSO
same,Normalized viability % DMSO,[11],28.2 % DMSO
same,Normalized viability % DMSO,[12],2.2 % DMSO
same,Normalized viability % DMSO,[13],7.1 % DMSO
same,Normalized viability % DMSO,[14],2.1 % DMSO
same,Normalized viability % DMSO,[15],15.8 % DMSO
same,IC50,[16]; read-out: IC50,0.00794 µM
same,Normalized viability % DMSO,[17]; 1 μM,40.5 % DMSO
same,Normalized viability % DMSO,[17]; 10 μM,25.4 % DMSO
"(2S,4R)-N-[2-(4-bromoindol-1-yl)ethyl]-1-[(2S)-2-(4-cyclopropyltriazol-1-yl)-3,3-dimethyl-butanoyl]-4-hydroxy-pyrrolidine-2-carboxamide [Compound 469]",Normalized viability % DMSO,[18],62.6 % DMSO
same,IC50,[16]; read-out: IC50,0.21 µM
same,IC50,"[16]; IC50 values measured in the presence of digitonin, read-out: IC50 + Digi (μM)*",0.435 µM
